Data reported in ChEMBL document CHEMBL1135314, “Synthesis of tag introducible (3-trifluoromethyl)phenyldiazirine based photoreactive phenylalanine” (Bioorg Med Chem Lett, 2002).

Test: Half life of compound was determined.
Assay type: ADME

Structure (SMILES) | half-life [min]
N[C@@H](Cc1ccc(C2(C(F)(F)F)N=N2)cc1OCCNC(=O)CCCC[C@@H]1SC[C@@H]2NC(=O)N[C@@H]21)C(=O)O | 2.6
N[C@@H](Cc1ccc(C2(C(F)(F)F)N=N2)cc1OCCOCCOCCNC(=O)CCCC[C@@H]1SC[C@@H]2NC(=O)N[C@@H]21)C(=O)O | 2.3
